Data: patent US20230339981A1, “KRAS G12D MODULATING COMPOUNDS” (priority 2022, published 2023)

Assays:
GP2D (KRAS G12D) cells = assay: 2D cell viability assay (CellTiter-Glo); format: cell-based; settings: GP2d, 96 h, 4 days
Description: Example B. 2D Cell Viability Assay
Compounds were tested in a 384-well format for their ability to inhibit the viability of GP2D (KRAS G12D) cells in 2D assays. Compounds were serially diluted (1:3) in DMSO. The LabCyte ECHO Acoustic dispenser system was used to pre-spot assay plates with 200 nL of test molecule per well. 1000 cells/well (40 μL volume per well) in RPMI medium with 10% FBS, and Penicillin-Streptomycin-Glutamine were plated in pre-spotted 384-well plates (Greiner, Catalog #781076) on the BioTEK EL406 liquid dispenser with a 5 μL dispensing cassette (BioTek 7170011). The plates were incubated at 37° C., 5% CO2 for 4 days before addition of CellTiter-Glo (CTG) reagent and measurement of luminescence signal. EC50 values were defined as the compound concentration that causes a 50% decrease in luminescence signal and were calculated using a sigmoidal dose-response model to generate curve fits.

GDP-loaded KRAS G12D = GDP-loaded KRAS G12D (Homo sapiens (Human), UniProt P01116, G12D); assay: KRAS G12D (GDP) biochemical assay (TR-FRET probe displacement); format: binding; settings: 2 hours
Description: Example A. KRAS G12D (GDP) Biochemical Assay
Compounds were tested for binding to GDP-loaded KRAS G12D in a 384-well assay format using a TR-FRET probe displacement assay in buffer consisting of 50 mM Hepes (pH 7.4), 150 mM NaCl, 5 mM MgCl2 and 0.005% Tween-20. […] Compounds were serially diluted (1:3) in DMSO. The LabCyte ECHO Acoustic dispenser system was used to pre-spot the assay plates (384-well Non-Binding Surface plates, Corning, Catalog #3824) with 50 nL of compound. The compounds were pre-incubated with 5 μL of 2× final enzyme concentration for 30 minutes before adding 5 μL of 2× final concentration of Eu-streptavidin and TR-FRET probe (10 μL final reaction volume). The plates were incubated at room temperature for 2 hours before measuring TR-FRET ratio on the Envision plate reader. IC50 values were defined as the compound concentration that causes a 50% decrease in TR-FRET ratio and were calculated using a sigmoidal dose-response model to generate curve fits.

GDP-loaded KRAS G12D, sequence (P01116-2 other isoform, or with tags, fused parts or gaps G12D): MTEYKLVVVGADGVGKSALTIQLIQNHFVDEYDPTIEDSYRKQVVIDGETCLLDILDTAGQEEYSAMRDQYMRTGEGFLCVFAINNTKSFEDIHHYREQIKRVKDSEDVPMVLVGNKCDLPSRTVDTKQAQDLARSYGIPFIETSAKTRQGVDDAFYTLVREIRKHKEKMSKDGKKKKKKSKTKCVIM

Compound	EC50 (GP2D (KRAS G12D) cells) [nM]	IC50 (GDP-loaded KRAS G12D) [nM]
C#Cc1c(F)ccc2cc(O)cc(-c3nc4c5c(nc(OC[C@@]67CCCN6C[C@H](OC(C(F)(F)F)(C(F)(F)F)C(F)(F)F)CC7)nc5c3F)N3C[C@H]5CC[C@H](N5)[C@H]3CO4)c12 [Example 56, 5-ethynyl-6-fluoro-4-((5aS,6S,9R)-1-fluoro-12-(((6R,8aS)-6-((1,1,1,3,3,3-hexafluoro-2-(trifluoromethyl)propan-2-yl)oxy)hexahydroindolizine-8a(1H)-yl)methoxy)-5a,6,7,8,9,10-hexahydro-5H-4-oxa-3,10a,11,13,14-pentaaza-6,9-methanonaphtho[1,8-ab]heptalen-2-yl)naphthalen-2-ol]	50	13
C#Cc1c(F)ccc2cc(O)cc(-c3nc4c5c(nc(OC[C@@]67CCCN6C[C@H](F)C7)nc5c3F)N3C[C@H]5CC[C@H](N5)[C@H]3[C@H](C3CC3)O4)c12 [Example 71, 4-((5S,5aS,6S,9R)-5-cyclopropyl-1-fluoro-12-(((2R,7aS)-2-fluorotetrahydro-1H-pyrrolizin-7a(5H)-yl)methoxy)-5a,6,7,8,9,10-hexahydro-5H-4-oxa-3,10a,11,13,14-pentaaza-6,9-methanonaphtho[1,8-ab]heptalen-2-yl)-5-ethynyl-6-fluoronaphthalen-2-ol]	81	4
C#Cc1c(F)ccc2cccc(-c3nc4c5c(nc(OC[C@@]67CCCN6C[C@H](F)C7)nc5c3F)N3C[C@H]5CC[C@H](N5)[C@H]3CC[C@@H]4C)c12 [Example 174, (4S,6aR,7S,10R)-2-(8-ethynyl-7-fluoronaphthalen-1-yl)-1-fluoro-13-(((2R,7aS)-2-fluorotetrahydro-1H-pyrrolizin-7a(5H)-yl)methoxy)-4-methyl-5,6,6a,7,8,9,10,11-octahydro-4H-3,11a,12,14,15-pentaaza-7,10-methanocyclohepta[4,5]cycloocta[1,2,3-de]naphthalene]	100	5.7
Oc1cc(-c2nc3c4c(nc(OC[C@@]56CCCN5C[C@H](F)C6)nc4c2F)N2C[C@H]4CC[C@H](N4)[C@@H]2CO3)c2ccccc2c1 [Example 19, 4-((5aR,6S,9R)-1-fluoro-12-(((2R,7aS)-2-fluorotetrahydro-1H-pyrrolizin-7a(5H)-yl)methoxy)-5a,6,7,8,9,10-hexahydro-5H-4-oxa-3,10a,11,13,14-pentaaza-6,9-methanonaphtho[1,8-ab]heptalen-2-yl)naphthalen-2-ol]	3300	590
C#Cc1c(F)ccc2cccc(-c3c(Cl)c4c5c(nc(OC[C@@]67CCCN6C[C@H](F)C7)nc5c3F)N3C[C@H]5CC[C@H](N5)[C@H]3CC4)c12 [Example 202, (1S,4R,14aR)-12-chloro-11-(8-ethynyl-7-fluoronaphthalen-1-yl)-10-fluoro-8-(((2R,7aS)-2-fluorotetrahydro-1H-pyrrolizin-7a(5H)-yl)methoxy)-1,2,3,4,5,13,14,14a-octahydro-1,4-epiminoazepino[1′,2′:1,7]azepino[2,3,4-de]quinazoline]	64	0.37
C#Cc1c(F)ccc2cccc(-c3nc4c5c(nc(OCC6(CN7CCC[Si](C)(C)CC7)CC6)nc5c3F)N3C[C@H]5CC[C@H](N5)[C@@H]3[C@@H](C)C4)c12 [Example 100, (5S,5aS,6S,9R)-12-((1-((4,4-dimethyl-1,4-azasilepan-1-yl)methyl)cyclopropyl)methoxy)-2-(8-ethynyl-7-fluoronanhthalen-1-yl)-1-fluoro-5-methyl-4,5,5a,6,7,8,9,10-octahydro-3,10a,11,13,14-pentaaza-6,9-methanonaphtho[1,8-ab]heptalene]	373	31.8
Oc1cc(-c2nc3c4c(nc(OC[C@@]56CCCN5C[C@H](F)C6)nc4c2F)N2C[C@H]4CC[C@H](N4)[C@H]2CO3)c2c(F)cccc2c1 [Example 5, 5-fluoro-4-((5aS,6S,9R)-1-fluoro-12-(((2R,7aS)-2-fluorotetrahydro-1H-pyrrolizin-7a(5H)-yl)methoxy)-5a,6,7,8,9,10-hexahydro-5H-4-oxa-3,10a,11,13,14-pentaaza-6,9-methanonaphtho[1,8-ab]heptalen-2-yl)naphthalen-2-ol]	250	3
Fc1ccc2ccccc2c1-c1nc2c3c(nc(OC[C@@]45CCCN4C[C@H](F)C5)nc3c1F)N1C[C@H]3CC[C@H](N3)[C@H]1CO2 [Example 48, (5aS,6S,9R)-1-fluoro-2-(2-fluoronaphthalen-1-yl)-12-(((2R,7aS)-2-fluorotetrahydro-1H-pyrrolizin-7a(5H)-yl)methoxy)-5a,6,7,8,9,10-hexahydro-5H-4-oxa-3,10a,11,13,14-pentaaza-6,9-methanonaphtho[1,8-ab]heptalene]	> 1000	2200
C#Cc1c(F)ccc2cccc(-c3nc4c5c(nc(OC[C@@]67CCCN6[C@H](COc6ccnc(C(F)F)n6)CC7)nc5c3F)N3C[C@H]5CC[C@H](N5)[C@H]3CCC4)c12 [Example 208, (6aR,7S,10R)-13-(((3S,7aS)-3-(((2-(difluoromethyl)pyrimidin-4-yl)oxy)methyl)tetrahydro-1H-pyrrolizin-7a(5H)-yl)methoxy)-2-(8-ethynyl-7-fluoronaphthalen-1-yl)-1-fluoro-5,6,6a,7,8,9,10,11-octahydro-4H-3,11a,12,14,15-pentaaza-7,10-methanocyclohepta[4,5]cycloocta[1,2,3-de]naphthalene]	3.3	0.09
C#Cc1c(F)ccc2cccc(-c3nc4c5c(nc(OC[C@@]67CCCN6[C@H](CF)CC7)nc5c3F)N3C[C@H]5CC[C@H](N5)[C@H]3CC[C@H]4C)c12 [Example 195, (4R,6aR,7S,10R)-2-(8-ethynyl-7-fluoronaphthalen-1-yl)-1-fluoro-13-(((3S,7aS)-3-(fluoromethyl)tetrahydro-1H-pyrrolizin-7a(5H)-yl)methoxy)-4-methyl-5,6,6a,7,8,9,10,11-octahydro-4H-3,11a,12,14,15-pentaaza-7,10-methanocyclohepta[4,5]cycloocta[1,2,3-de]naphthalene]	1.5	0.07
C#Cc1c(F)ccc2cccc(-c3nc4c5c(nc(OC[C@@]67CCCN6[C@H](COc6cc(C(F)(F)F)ncn6)CC7)nc5c3F)N3C[C@H]5CC[C@H](N5)[C@H]3CCC4)c12 [Example 154, (6aR,7S,10R)-2-(8-ethynyl-7-fluoronanhthalen-1-yl)-1-fluoro-13-(((3S,7aS)-3-(((6-(trifluoromethyl)pyrimidin-4-yl)oxy)methyl)tetrahydro-1H-pyrrolizin-7a(5H)-yl)methoxy)-5,6,6a,7,8,9,10,11-octahydro-4H-3,11a,12,14,15-pentaaza-7,10-methanocyclohepta[4,5]cycloocta[1,2,3-de]naphthalene]	1	0.1
C#Cc1c(F)c(F)cc2cccc(-c3nc4c5c(nc(OC[C@@]67CCCN6C[C@H](F)C7)nc5c3F)N3C[C@H]5CC[C@H](N5)[C@H]3CO4)c12 [Example 62, (5aS,6S,9R)-2-(8-ethynyl-6,7-difluoronaphthalen-1-yl)-1-fluoro-12-(((2R,7aS)-2-fluorotetrahydro-1H-pyrrolizin-7a(5H)-yl)methoxy)-5a,6,7,8,9,10-hexahydro-5H-4-oxa-3,10a,11,13,14-pentaaza-6,9-methanonaphtho[1,8-ab]heptalene]	79	7
C#Cc1c(F)ccc2cccc(-c3nc4c5c(nc(OC[C@@]67CCCN6[C@H](COC(C(F)(F)F)(C(F)(F)F)C(F)(F)F)CC7)nc5c3F)N3C[C@H]5CC[C@H](N5)[C@@H]3[C@@H](C)C4)c12 [Example 83, (5S,5aS,6S,9R)-2-(8-ethynyl-7-fluoronaphthalen-1-yl)-1-fluoro-12-(((3S,7aS)-3-(((1,1,1,3,3,3-hexafluoro-2-(trifluoromethyl)propan-2-yl)oxy)methyl)tetrahydro-1H-pyrrolizin-7a(5H)-yl)methoxy)-5-methyl-4,5,5a,6,7,8,9,10-octahydro-3,10a,11,13,14-pentaaza-6,9-methanonaphtho[1,8-ab]heptalene]	67.4	3.2
C#Cc1c(F)ccc2cccc(-c3nc4c5c(nc(OC[C@@]67CCCN6C[C@H](F)C7)nc5c3F)N3C[C@H]5CC[C@H](N5)[C@@H]3[C@@H](CC)C4)c12 [Example 91, (5S,5aS,6S,9R)-5-ethyl-2-(8-ethynyl-7-fluoronaphthalen-1-yl)-1-fluoro-12-(((2R,7aS)-2-fluorotetrahydro-1H-pyrrolizin-7a(5H)-yl)methoxy)-4,5,5a,6,7,8,9,10-octahydro-3,10a,11,13,14-pentaaza-6,9-methanonaphtho[1,8-ab]heptalene]	1000	100
